Laboratory results taken from patent US8163763B2, “Pyrimidine compounds, compositions and methods of use” (Genentech, Inc., priority 2008, dated 2012).

Target: mTOR kinase (purified recombinant mTOR(1360-2549)+GBL) (Homo sapiens, UniProt P42345)
Experiment: In vitro mTOR kinase assay (TR-FRET)
Assay type: biochemical
Details: class of Ki in the mTOR kinase assay; read-out: mTOR Activity Level
From the text: a. In vitro mTOR Kinase Assay
The reaction is stopped by an addition of a Terbium-labeled phospho-specific antibody, e.g., Tb-labeled anti-p4E-BP1 T37/T46, (Invitrogen, product #PR8835A), EDTA, and TR-FRET buffer solution (Invitrogen, Product #PR3756B). Product formation is detected by way of time-resolved fluorescence resonance energy transfer (TR-FRET), which occurs when the phosphorylated substrate and labeled antibody are in close proximity due to phospho-specific binding. Enzymatic activity is measured as an increase in TR-FRET signal using a Perkin Elmer Envision plate reader.
Compound activity is tested in 10 point dose curves starting at the highest final concentration of 10 uM. They are serially diluted in 100% DMSO prior to further dilution with assay buffer. […] 8 μL of solution containing 2 nM Tb-anti-p4E-BP1 antibody & 10 mM EDTA diluted TR-FRET buffer is then added and incubated for 30 minutes to stop the reaction. The plate is scanned with the Envision plate reader. Ki values are calculated in Assay Explorer using the Morrison ATP-competitive tight binding equation for Ki apparent determination.

Sequence of mTOR kinase (purified recombinant mTOR(1360-2549)+GBL) (P42345 1360-2549): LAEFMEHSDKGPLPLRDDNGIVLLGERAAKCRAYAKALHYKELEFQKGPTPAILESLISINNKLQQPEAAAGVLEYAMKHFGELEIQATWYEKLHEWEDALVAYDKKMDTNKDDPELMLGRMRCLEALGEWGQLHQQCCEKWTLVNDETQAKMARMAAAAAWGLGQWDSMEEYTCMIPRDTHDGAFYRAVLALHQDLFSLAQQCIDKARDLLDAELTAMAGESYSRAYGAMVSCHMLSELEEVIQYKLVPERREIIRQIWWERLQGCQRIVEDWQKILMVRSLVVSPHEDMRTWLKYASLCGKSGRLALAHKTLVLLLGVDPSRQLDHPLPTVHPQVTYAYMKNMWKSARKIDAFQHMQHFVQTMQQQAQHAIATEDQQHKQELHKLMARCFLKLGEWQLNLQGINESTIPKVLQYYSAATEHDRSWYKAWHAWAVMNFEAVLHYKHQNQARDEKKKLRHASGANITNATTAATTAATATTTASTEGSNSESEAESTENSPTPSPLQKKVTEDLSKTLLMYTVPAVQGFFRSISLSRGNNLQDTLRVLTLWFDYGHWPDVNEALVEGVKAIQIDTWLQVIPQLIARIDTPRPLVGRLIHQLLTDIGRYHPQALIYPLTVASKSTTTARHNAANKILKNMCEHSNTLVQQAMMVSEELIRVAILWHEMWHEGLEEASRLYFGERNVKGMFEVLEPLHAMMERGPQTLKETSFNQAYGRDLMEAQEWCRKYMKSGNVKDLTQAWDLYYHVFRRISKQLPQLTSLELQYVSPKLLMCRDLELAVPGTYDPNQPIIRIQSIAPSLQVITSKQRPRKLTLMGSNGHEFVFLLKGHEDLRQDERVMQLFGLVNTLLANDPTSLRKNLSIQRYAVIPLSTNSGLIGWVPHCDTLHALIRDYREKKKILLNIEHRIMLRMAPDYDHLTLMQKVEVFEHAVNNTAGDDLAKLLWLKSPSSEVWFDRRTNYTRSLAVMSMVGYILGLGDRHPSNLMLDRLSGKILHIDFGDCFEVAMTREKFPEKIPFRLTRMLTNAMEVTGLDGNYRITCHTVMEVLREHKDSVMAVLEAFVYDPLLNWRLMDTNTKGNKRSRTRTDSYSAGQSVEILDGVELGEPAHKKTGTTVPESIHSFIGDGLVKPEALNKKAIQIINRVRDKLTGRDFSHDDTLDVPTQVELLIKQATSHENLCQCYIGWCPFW
Sequence of mTOR kinase (purified recombinant mTOR(1360-2549)+GBL) (Q9BVC4 whole entry partner): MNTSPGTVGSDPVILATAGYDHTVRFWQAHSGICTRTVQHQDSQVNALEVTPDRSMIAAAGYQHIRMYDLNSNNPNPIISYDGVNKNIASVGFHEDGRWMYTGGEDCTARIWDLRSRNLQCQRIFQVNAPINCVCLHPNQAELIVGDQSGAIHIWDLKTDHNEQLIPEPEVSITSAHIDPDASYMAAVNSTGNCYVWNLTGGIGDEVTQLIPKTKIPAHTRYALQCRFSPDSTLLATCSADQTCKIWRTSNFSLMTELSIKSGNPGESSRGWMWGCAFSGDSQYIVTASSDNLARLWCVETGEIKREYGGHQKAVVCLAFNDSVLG

SMILES	Ki [nM]
CCNC(=O)Nc1ccc(-c2nc3c(c(N4CCOCC4)n2)CN(c2ccnc(N)n2)C3)cc1	< 100
CCNC(=O)Nc1ccc(-c2nc3c(c(N4CCOCC4)n2)CN(C(=O)OCc2ccccc2)C3)cc1	< 100
CCNC(=O)Nc1ccc(-c2nc3c(c(N4CCOCC4)n2)CN(C(=O)OCC)C3)cc1	< 100
CCNC(=O)Nc1ccc(-c2nc3c(c(N4CCOCC4)n2)CN(c2ccnc(N)n2)CC3)cc1	< 100
CCNC(=O)Nc1ccc(-c2nc3c(c(N4CCOCC4)n2)CN(C(=O)c2ccccn2)CC3)cc1	< 100
CCNC(=O)Nc1ccc(-c2nc3c(c(N4CCOCC4)n2)CCN(c2ncccn2)C3)cc1	< 100
CCNC(=O)Nc1ccc(-c2nc3c(c(N4CCOCC4)n2)CCN(c2ccnc(N)n2)C3)cc1	< 100
CCNC(=O)Nc1ccc(-c2nc3c(c(N4CCOCC4)n2)CN(Cc2ccc(O)cc2)C3)cc1	< 100
CCNC(=O)Nc1ccc(-c2nc3c(c(N4CCOCC4)n2)CN(C2CCN(C(C)=O)CC2)C3)cc1	< 100
CCNC(=O)Nc1ccc(-c2nc3c(c(N4CCCOCC4)n2)CN(C(=O)OC(C)(C)C)C3)cc1	< 100
CCNC(=O)Nc1ccc(-c2nc3c(c(N4CCCOCC4)n2)CN(S(=O)(=O)c2ccccc2)C3)cc1	< 100
CCNC(=O)Nc1ccc(-c2nc3c(c(N4CCCOCC4)n2)CN(S(C)(=O)=O)C3)cc1	< 100
CCNC(=O)Nc1ccc(-c2nc3c(c(N4CCCOCC4)n2)CN(c2ncccn2)C3)cc1	< 100
CCNC(=O)Nc1ccc(-c2nc3c(c(N4CCOCC4)n2)CCN(C(=O)OCc2ccccc2)C3)cc1	< 100
CCNC(=O)Nc1ccc(-c2nc3c(c(N4CCOCC4)n2)CCN(C(=O)c2ccccn2)C3)cc1	< 100
CCNC(=O)Nc1ccc(-c2nc3c(c(N4CCOCC4)n2)CCN(C(=O)c2cccnc2)C3)cc1	< 100
CCNC(=O)Nc1ccc(-c2nc3c(c(N4CCOCC4)n2)CCN(C(=O)c2ccncc2)C3)cc1	< 100
CCNC(=O)Nc1ccc(-c2nc3c(c(N4CCOCC4)n2)CCN(C2CCN(C)CC2)C3)cc1	< 100
CCNC(=O)Nc1ccc(-c2nc3c(c(N4CCCOCC4)n2)CCN(C(C)=O)C3)cc1	< 100
CCNC(=O)Nc1ccc(-c2nc3c(c(N4CCCOCC4)n2)CCN(C(=O)OCc2ccccc2)C3)cc1	< 100
CCNC(=O)Nc1ccc(-c2nc3c(c(N4CCCOCC4)n2)CCN(c2ncccn2)C3)cc1	< 100
CCNC(=O)Nc1ccc(-c2nc3c(c(N4CCCOCC4)n2)CN(C2CCN(C(C)=O)CC2)C3)cc1	< 100
CC(=O)Nc1ccc(-c2nc3c(c(N4CCOCC4)n2)CN(c2ncccn2)C3)cc1	100 to 5000

SMILES	Ki [nM]
CC(=O)Nc1cccc(-c2nc3c(c(N4CCOCC4)n2)CN(c2ncccn2)C3)c1	100 to 5000
CN(C)C(=O)Nc1ccc(-c2nc3c(c(N4CCOCC4)n2)CN(c2ncccn2)C3)cc1	100 to 5000
CS(=O)(=O)Nc1ccc(-c2nc3c(c(N4CCOCC4)n2)CN(c2ncccn2)C3)cc1	100 to 5000
NC(=O)c1ccc(-c2nc3c(c(N4CCOCC4)n2)CN(c2ncccn2)C3)cc1	100 to 5000
CCNC(=O)Nc1ccc(-c2nc3c(c(N4CCOC[C@@H]4C)n2)CNCC3)cc1	< 100
CCNC(=O)Nc1ccc(-c2nc3c(c(N4CCOC[C@@H]4C)n2)CN(c2ccnc(N)n2)CC3)cc1	< 100
CCNC(=O)Nc1ccc(-c2nc3c(c(N4CCOC[C@@H]4C)n2)CCN(C(=O)OC(C)(C)C)C3)cc1	< 100
CCNC(=O)Nc1ccc(-c2nc3c(c(N4CCOC[C@@H]4C)n2)CCNC3)cc1	< 100
Cc1nnc(-c2ccc(-c3nc4c(c(N5CCOCC5)n3)CCN(c3ncccn3)C4)cc2)o1	100 to 5000
c1cnc(N2CCc3c(nc(-c4ccc(-n5cccn5)cc4)nc3N3CCOCC3)C2)nc1	100 to 5000
O=c1[nH]c2ccc(-c3nc4c(c(N5CCOCC5)n3)CCN(c3ncccn3)C4)cc2[nH]1	100 to 5000
CCCNC(=O)Nc1ccc(-c2nc3c(c(N4CCOCC4)n2)CCN(c2ncccn2)C3)cc1	100 to 5000
CC(C)NC(=O)Nc1ccc(-c2nc3c(c(N4CCOCC4)n2)CCN(c2ncccn2)C3)cc1	100 to 5000
O=C(NCCO)Nc1ccc(-c2nc3c(c(N4CCOCC4)n2)CCN(c2ncccn2)C3)cc1	100 to 5000
O=C(NCC1CC1)Nc1ccc(-c2nc3c(c(N4CCOCC4)n2)CCN(c2ncccn2)C3)cc1	< 100
CCNC(=O)Nc1ccc(-c2nc3c(c(N4CCOC[C@@H]4C)n2)CCN(c2ccnc(N)n2)C3)cc1	< 100
CCNC(=O)Nc1ccc(-c2nc3c(c(N4CCOCC4)n2)CCN(C(=O)c2cnco2)C3)cc1	< 100
CCNC(=O)Nc1ccc(-c2nc3c(c(N4CCOCC4)n2)CCN(C(=O)c2cocn2)C3)cc1	< 100
CCNC(=O)Nc1ccc(-c2nc3c(c(N4CCOCC4)n2)CCN(C(=O)c2ccnn2C)C3)cc1	< 100
CCNC(=O)Nc1ccc(-c2nc3c(c(N4CCOCC4)n2)CCN(C(=O)[C@H](C)O)C3)cc1	< 100
CCNC(=O)Nc1ccc(-c2nc3c(c(N4CCOCC4)n2)CCN(C(=O)c2c(C)oc4ncn(C)c(=O)c24)C3)cc1	< 100
CCNC(=O)Nc1ccc(-c2nc3c(c(N4CCOCC4)n2)CCN(C(=O)N2CCOCC2)C3)cc1	< 100
O=C(Nc1ccc(-c2nc3c(c(N4CCOCC4)n2)CCN(c2ncccn2)C3)cc1)NC1CC1	< 100

SMILES	Ki [nM]
O=C(Nc1ccc(-c2nc3c(c(N4CCOCC4)n2)CCN(c2ncccn2)C3)cc1)NC1CCC1	< 100
CCNC(=O)Nc1ccc(-c2nc3c(c(N4CCOCC4)n2)CNCC3)cc1	< 100
CCNC(=O)Nc1ccc(-c2nc3c(c(N4CCOCC4)n2)CN(C(=O)c2cccnc2)CC3)cc1	< 100
CCNC(=O)Nc1ccc(-c2nc3c(c(N4CCOCC4)n2)CN(C(=O)c2ccncc2)CC3)cc1	< 100
Nc1ccc(-c2nc3c(c(N4CCOCC4)n2)CCN(c2ncccn2)C3)cc1	100 to 5000
COc1ccc(CN2Cc3c(nc(-c4cnc(N)nc4)nc3N3CCOCC3)C2=O)cc1	100 to 5000
CS(=O)(=O)Nc1ccc(-c2nc3c(c(N4CCOCC4)n2)CN(Cc2ccccc2)C3=O)cc1	100 to 5000
CNC(=O)Nc1ccc(-c2nc3c(c(N4CCOCC4)n2)CN(Cc2ccc(OC)cc2)C3=O)cc1	< 100
CC(=O)Nc1ccc(-c2nc3c(c(N4CCOCC4)n2)CN(Cc2ccccc2)C3=O)cc1	100 to 5000
CCNC(=O)Nc1ccc(-c2nc3c(c(N4CCOCC4)n2)CN(C(=O)c2ccccc2Cl)CC3)cc1	< 100
CCNC(=O)Nc1ccc(-c2nc3c(c(N4CCOCC4)n2)CN(C(=O)c2ccc(Cl)cc2)CC3)cc1	< 100
CCNC(=O)Nc1ccc(-c2nc3c(c(N4CCOCC4)n2)CN(C(=O)/C=C/c2ccccc2)CC3)cc1	< 100
CC(C)(C)OC(=O)N1Cc2nc(-c3cnc(N)nc3)nc(N3CCOCC3)c2C1	100 to 5000
CCNC(=O)Nc1ccc(-c2nc3c(c(C4CCOCC4)n2)CN(C(=O)OC(C)(C)C)C3)cc1	100 to 5000
CCNC(=O)Nc1ccc(-c2nc3c(c(C4=CCOCC4)n2)CCN(c2ncccn2)C3)cc1	100 to 5000
CCNC(=O)Nc1ccc(-c2nc3c(c(C4CCOCC4)n2)CCN(c2ncccn2)C3)cc1	100 to 5000
CCNC(=O)Nc1ccc(-c2nc3c(c(-c4cccnc4)n2)CCN(Cc2ccccc2)C3)cc1	100 to 5000
CCNC(=O)Nc1ccc(-c2nc3c(c(N4CCOCC4)n2)CN(Cc2ccccc2)C3)cc1	< 100
CCNC(=O)Nc1ccc(-c2nc3c(c(N4CCOCC4)n2)CN(Cc2cccc(O)c2)C3)cc1 [drawing 553]	< 100
CCNC(=O)Nc1ccc(-c2nc3c(c(N4CCCOCC4)n2)CN(C(=O)OCc2ccccc2)C3)cc1 [drawing 567]	< 100
O=C(Nc1ccc(-c2nc3c(c(N4CCOCC4)n2)CN(c2ncccn2)C3)cc1)NC1CCCC1 [drawing 572]	< 100
c1cnc(N2CCc3c(nc(-c4ccc5[nH]ncc5c4)nc3N3CCOCC3)C2)nc1 [drawing 585]	100 to 5000
CCNC(=O)Nc1ccc(-c2nc3c(c(N4CCOCC4)n2)CN(C(=O)Cc2ccccc2)CC3)cc1 [drawing 603]	< 100

Same assay, conditions: mTOR kinase assay of Example 496; read-out: Ki

SMILES	Ki [nM]
CC(=O)Nc1ccc(-c2nc3c(c(N4CCCOCC4)n2)CN(Cc2ccccc2)C3=O)cc1	252
CCNC(=O)Nc1ccc(-c2nc3c(c(N4CCOCC4)n2)CCN2C(=O)N(CC)CC[C@@H]32)cc1	5
CCNC(=O)Nc1ccc(-c2nc3c(c(N4CCOC[C@@H]4C)n2)CCN(c2nc(C)cc(C)n2)C3)cc1	4
C[C@H]1COCCN1c1nc(-c2ccc(NC(=O)NCC(F)F)cc2)nc2c1CN(C(=O)c1nccs1)CC2	32
CC(C)(C)OC(=O)N1Cc2nc(-c3cnc(N)nc3)nc(C3C=COCC3)c2C1 (stereo not shown)	753
CCNC(=O)Nc1ccc(-c2nc3c(c(N4CCOCC4)n2)CN(Cc2cccc(O)c2)C3)cc1 [drawing 624]	9
CCNC(=O)Nc1ccc(-c2nc3c(c(N4CCCOCC4)n2)CN(C(=O)OCc2ccccc2)C3)cc1 [drawing 625]	2
O=C(Nc1ccc(-c2nc3c(c(N4CCOCC4)n2)CN(c2ncccn2)C3)cc1)NC1CCCC1 [drawing 626]	41.2
c1cnc(N2CCc3c(nc(-c4ccc5[nH]ncc5c4)nc3N3CCOCC3)C2)nc1 [drawing 628]	636
CCNC(=O)Nc1ccc(-c2nc3c(c(N4CCOCC4)n2)CN(C(=O)Cc2ccccc2)CC3)cc1 [drawing 633]	52
